Data as given in patent US12029748B2, “Synergistic composition for maintenance of healthy balance of microflora” (KIMBERLY-CLARK WORLDWIDE, INC., priority 2017, dated 2024).
Where a SMILES comes first, the peptide text is derived from it.

Legend:
L. crispatus and E. coli = test: Therapeutic Effect Protocol: L. crispatus / E. coli co-culture, ratio after 36 hours; assay type: cell-based, Lactobacillus crispatus; E. coli; settings: for Therapeutic Efficacy Results (Lactobacillus/E. coli) 0.10%: nitrogen compound 0.10 wt/vol % with 1.0 wt/vol % α methyl-D glucoside (10:1); for Therapeutic Efficacy Results (Lactobacillus/E. coli) 0.10% / Therapeutic Efficacy Results (Lactobacillus/E. coli) 0.50% / Therapeutic Efficacy Results (Lactobacillus/E. coli) 1.00%: 36 hours anaerobic co-culture, 37° C.; for Therapeutic Efficacy Results (Lactobacillus/E. coli) 0.50%: nitrogen compound 0.50 wt/vol % with 1.0 wt/vol % α methyl-D glucoside (2:1); for Therapeutic Efficacy Results (Lactobacillus/E. coli) 1.00%: nitrogen compound 1.00 wt/vol % with 1.0 wt/vol % α methyl-D glucoside (1:1); for Therapeutic effect when ratio α methyl-D glucoside : nitrogen compound is at least about 2:1, but not at 1:1: ratio at least about 2:1, not 1:1; for Therapeutic effect at ratio 2:1 and 10:1, but not at 1:1: ratios 2:1 and 10:1, not 1:1; for Therapeutic effect of other saccharides: saccharide other than α methyl-D glucoside, by itself or with a nitrogen containing compound
Procedure: As used herein the term “therapeutic effect” refers to the ability of the compositions and formulations of the present invention to stimulate the growth of Lactobacillus relative E. coli measured according to the Therapeutic Effect Protocol described below. Generally, therapeutic effect is expressed as a ratio of Lactobacillus to E. coli and is desirably greater than about 2, more preferably greater than about 20 and more desirably greater than about 100.
The data in Table 1 was tested according to the Therapeutic Effect Protocol as described further herein. The nitrogen compounds were tested for their therapeutic efficacy at three different concentrations when combined with α methyl-D glucoside (1% wt/vol %). The concentrations of the nitrogen containing compounds that were tested were 1% wt/vol %, 0.5% wt/vol %, and 0.1% wt/vol %.
Colonies of L. crispatus and E. coli were prepared as follows. A colony of L. crispatus was transferred to 7 ml de Man, Rogosa & Sharpe (MRS) broth and incubated anaerobically (using BD GasPak EZ anaerobe container system with indicator) at 37° C. without shaking for 18-20 hours. A colony of E. coli was transferred to 5 ml Tryptic Soy Broth (TSB) and incubated aerobically (shaking at 100 rpm) at 37° C. for 18-20 hours.
Colonies were then inoculated as follows. Bacterial cultures were gently vortexed and 1 mL of each culture was transferred to a corresponding 2.0 mL micro-centrifuge tube and then centrifuged for two minutes at 14,500 rpm. The cultural supernatant was removed and the cell pellet was re-suspended in 1 mL of 0.95% (wt/vol %) saline. […] For L. crispatus, the pellet was re-suspended in 1 mL of 0.95% saline to achieve ˜10^7-10^8 cfu/mL. For E. coli, the pellet was re-suspended in 1 mL of 0.95% saline to achieve ˜10^8-10^9 cfu/mL.
Media were prepared as follows.
(§1) All of the ingredients in Table 2 were combined and the pH was adjusted to 6.5. […] To evaluate the effect of various nitrogen containing therapeutic agents on the growth of bacteria, the LAPT-g media, prepared as described above, was supplemented with various nitrogen containing compound therapeutic agents to a final test concentration between 0.1 and 1.0%. As initial screening measures, solubility and initial pH of each composition were checked. If a specific composition was insoluble (as detected by visual indication of precipitates or turbidity), then no further therapeutic efficacy testing was undertaken on that composition. Additionally, if the initial pH of the composition was below 5.5 (“Low”) or was above 6.5 (“High”), then no further therapeutic efficacy testing was undertaken on that composition.
Five milliliters (5 mL) of each medium was transferred to a test tube in duplicates for subsequent inoculation. A master mixture of L. crispatus and E. coli, prepared as described above, was prepared in 1,000:1 ratio. Each (5 ml) test tube was inoculated with the master mixture to give 10^5-10^6 total CFU L. crispatus and 100-1,000 total CFU E. coli per tube.
To establish a negative control, one tube was vortexed and 100 μL was removed to determine the initial cell concentrations by serial dilutions and plating (2 plates per dilution). L. crispatus is selected on MRS agar plates incubated anaerobically at 37° C. for two days. E. coli is selected on TSA plates incubated aerobically at 37° C. for one day. The co-cultures were incubated in an anaerobic container with BD GasPaks at 37° C. for 36 hours.
The effect of the α methyl-D glucoside and the nitrogen containing compound therapeutic agents on the ratio of L. crispatus to E. coli was measured 36 hours after inoculation and a final pH of the test solutions was recorded. The co-culture tube was vortexed and 100 μL was removed to determine the final cell concentrations by serial dilutions and plating (2 plates per dilution). L. crispatus is selected on MRS agar plates incubated anaerobically at 37° C. for two days.

[1] = Initial pH screening of the composition; assay type: physicochemical; settings: for I pH (initial pH), 0.10%: nitrogen compound 0.10 wt/vol % with 1.0 wt/vol % α methyl-D glucoside in medium; for I pH (initial pH), 0.50%: nitrogen compound 0.50 wt/vol % with 1.0 wt/vol % α methyl-D glucoside in medium; for I pH (initial pH), 1.00%: nitrogen compound 1.00 wt/vol % with 1.0 wt/vol % α methyl-D glucoside in medium
Text: Each composition in Table 1 went through initial screening measures of solubility and initial pH (“I pH”). […] When a specific concentration of a nitrogen containing compound was insoluble, the initial and final pH (“F pH”) of the combined composition was not measured and accordingly are each marked as “NM.” Additionally, initial pH of the composition was checked as a screening measure. The initial pH was marked as either Low (“L”), High (“H”), or Pass (“P”). A Low initial pH corresponds to an initial pH being less than 5.5, a High initial pH corresponds to an initial pH being greater than 6.5, and a Pass initial pH corresponds to the pH being at or between 5.5-6.5. […] As part of the Therapeutic Effect Protocol, a final pH was also measured after the compositions that were tested against the Lactobacillus and E. coli.
as §1

Row | Compound | Therapeutic Efficacy Results (Lactobacillus/E. coli) 0.10% (L. crispatus and E. coli) | Therapeutic Efficacy Results (Lactobacillus/E. coli) 0.50% (L. crispatus and E. coli) | Therapeutic Efficacy Results (Lactobacillus/E. coli) 1.00% (L. crispatus and E. coli) | I pH (initial pH), 0.10% [1] | I pH (initial pH), 0.50% [1] | I pH (initial pH), 1.00% [1] | further results
1 | CCC(N)C(=O)O (racemic) [DL-a-amino-n-butyric acid] | 0.34 | 100 | 4.44 | P (a Pass initial pH corresponds to the pH being at or between 5.5-6.5) | P (a Pass initial pH corresponds to the pH being at or between 5.5-6.5) | P (a Pass initial pH corresponds to the pH being at or between 5.5-6.5) | Therapeutic effect when ratio α methyl-D glucoside : nitrogen compound is less than 2:1 (1:1) (L. crispatus and E. coli; with α methyl-D glucoside, ratio 1:1): provided a therapeutic effect; Therapeutic effect when ratio α methyl-D glucoside : nitrogen compound is at least about 2:1, but not at 1:1 (L. crispatus and E. coli; with α methyl-D glucoside): provided a therapeutic effect
2 | C[C@H](N)C(=O)N[C@@H](CC(=O)O)C(=O)O [Ala-Asp] (H-Ala-Asp-OH) | >100 |  |  | P (a Pass initial pH corresponds to the pH being at or between 5.5-6.5) | L (A Low initial pH corresponds to an initial pH being less than 5.5) | L (A Low initial pH corresponds to an initial pH being less than 5.5) | Therapeutic effect when ratio α methyl-D glucoside : nitrogen compound is at least about 2:1, but not at 1:1 (L. crispatus and E. coli; with α methyl-D glucoside): provided a therapeutic effect
3 | C[C@H](N)C(=O)N[C@@H](CCC(=O)O)C(=O)O [Ala-Glu] (H-Ala-Glu-OH) | 10.67 |  |  | P (a Pass initial pH corresponds to the pH being at or between 5.5-6.5) | L (A Low initial pH corresponds to an initial pH being less than 5.5) | L (A Low initial pH corresponds to an initial pH being less than 5.5) | Therapeutic effect when ratio α methyl-D glucoside : nitrogen compound is at least about 2:1, but not at 1:1 (L. crispatus and E. coli; with α methyl-D glucoside): provided a therapeutic effect
4 | C[C@H](N)C(=O)N[C@@H](Cc1cnc[nH]1)C(=O)O [Ala-His] (H-Ala-His-OH) | >133 | 6.59E+02 |  | P (a Pass initial pH corresponds to the pH being at or between 5.5-6.5) | P (a Pass initial pH corresponds to the pH being at or between 5.5-6.5) | H (a High initial pH corresponds to an initial pH being greater than 6.5) | Therapeutic effect when ratio α methyl-D glucoside : nitrogen compound is at least about 2:1, but not at 1:1 (L. crispatus and E. coli; with α methyl-D glucoside): provided a therapeutic effect; Therapeutic effect at ratio 2:1 and 10:1, but not at 1:1 (L. crispatus and E. coli; with α methyl-D glucoside): provided a therapeutic effect
5 | O=C1NC(=O)C(=O)C(=O)N1 [Alloxan] | 4.83 | 1.45E+04 |  | P (a Pass initial pH corresponds to the pH being at or between 5.5-6.5) | P (a Pass initial pH corresponds to the pH being at or between 5.5-6.5) | L (A Low initial pH corresponds to an initial pH being less than 5.5) | Therapeutic effect when ratio α methyl-D glucoside : nitrogen compound is at least about 2:1, but not at 1:1 (L. crispatus and E. coli; with α methyl-D glucoside): provided a therapeutic effect; Therapeutic effect at ratio 2:1 and 10:1, but not at 1:1 (L. crispatus and E. coli; with α methyl-D glucoside): provided a therapeutic effect
6 | N.O.O.O.O.O=P([O-])(O)O.[Na+] [Ammonium Sodium Phosphate] | 0.25 |  |  |  |  |  | 
7 | Nc1ccn([C@@H]2O[C@H](CO)[C@@H](O)[C@H]2O)c(=O)n1 [Cytidine] | >103 | 3.85E+03 | 3.09 |  |  |  | 
8 | N=C(N)NCCC[C@@H](N)C(=O)O [D-Arginine] | 0.35 |  |  |  |  |  | 
9 | N[C@H](CO)C(=O)O [D-Serine] | 0.06 | <1.00 | 0.03 |  |  |  | 
10 | O=C[C@@H](O)[C@H](O)[C@H](O)CO [D-arabinose] |  |  |  |  |  |  | Therapeutic effect of other saccharides (L. crispatus and E. coli): not able to provide a therapeutic effect
11 | NCCCC(=O)O [DL-gamma-amino-n-butyric acid] | 0.836 | 246.6 | 1.86 |  |  |  | 
12 | NCC(=O)O [Glycine] | 0.56 | 20.5 | 950 |  |  |  | 
13 | NCCc1c[nH]cn1 [Histamine] |  |  |  | H (a High initial pH corresponds to an initial pH being greater than 6.5) | H (a High initial pH corresponds to an initial pH being greater than 6.5) | H (a High initial pH corresponds to an initial pH being greater than 6.5) | 
14 | N=C(N)NCCC[C@H](N)C(=O)O [L-Arginine] | 0.58 |  |  |  |  |  | 
15 | N[C@@H](CC(=O)O)C(=O)O [L-Aspartic Acid] | 1.36 |  |  |  |  |  | 
16 | N[C@@H](CCC(=O)O)C(=O)O [L-Glutamic Acid] | 2.81 |  |  |  |  |  | 
17 | O=C(O)[C@@H]1CCCN1 [L-Proline] | 1.88 | 0.55 | 1.25 |  |  |  | 
18 | CCCCCN [N-Amylamine] |  |  |  | H (a High initial pH corresponds to an initial pH being greater than 6.5) | H (a High initial pH corresponds to an initial pH being greater than 6.5) | H (a High initial pH corresponds to an initial pH being greater than 6.5) | 
19 | O=C(O)CC[C@@H](C(=O)O)N1C(=O)c2ccccc2C1=O [n-phthaloyl-l-glutamic acid] |  |  |  | L (A Low initial pH corresponds to an initial pH being less than 5.5) | L (A Low initial pH corresponds to an initial pH being less than 5.5) | L (A Low initial pH corresponds to an initial pH being less than 5.5) | 
20 | OC[C@H]1O[C@H](OC[C@H]2O[C@H](OC[C@H]3O[C@H](O[C@]4(CO)O[C@H](CO)[C@@H](O)[C@@H]4O)[C@H](O)[C@@H](O)[C@@H]3O)[C@H](O)[C@@H](O)[C@H]2O)[C@H](O)[C@@H](O)[C@H]1O [stachyose] |  |  |  |  |  |  | Therapeutic effect of other saccharides (L. crispatus and E. coli): not able to provide a therapeutic effect
21 | Ammonium Citrate | >260 | 4.93E−04 | 3.15E−08 |  |  |  | 
